The data set is described as follows: Bioavailability after Direct Intra-Duodenal Infusion (DIDI) administration in rat. Format: in vivo. Particulars: for bioavailability: female, Wistar Han, plasma, other: direct intra-duodenal infusion (DIDI), read-out: DIDI (bioavailability F after Direct Intra-Duodenal Infusion). An excerpt: Pharmacokinetic Study after Direct Intra-Duodenal Injection:
Direct Intra-Duodenal Infusion (DIDI) has been performed in fasted female Wistar Han rats (175-250 g) to determine the ability of oligosaccharide compounds, in a formulation according to the present invention, to cross the intestinal barrier.
Animals were anesthetized with isoflurane gas in a closed induction chamber and held under anesthesia (3% isoflurane and 2.4 l/min rate) until sacrifice at the end of the experiment. After shaving, a laparotomy was performed and the duodenum exposed. A small pore was created upper the bile duct into the duodenum using a high temperature cautery fine tip. A flexible catheter was inserted into the duodenal lumen through the hole and the upper part of the duodenum was closed and the catheter immobilized by clipping with a forceps. A syringe containing the formulation according to the present invention and diluted as indicated below was placed onto the flexible catheter and the syringe's plunger was slowly depressed releasing the material into the duodenum. Immediately after, a 0.9% NaCl solution was injected (50 μl) to ensure complete compound administration. At this step, peritoneal cavity and skin of the rats were closed using silk suture.
The dose of the oligosaccharide compound according to the present invention to be administrated is 2 mg/kg of body weight or 4 mg/kg of body weight. Therefore, each rat received the quantity of the formulation corresponding to this dosage (i.e. for the dose of 2 mg/kg of body weight, 0.4 mg per rat of 200 g, corresponding to 40 mg of formulation for a formulation containing 1% by weight of the oligosaccharide), diluted extemporaneously at ambient temperature in water for injection with a total volume of administration of 500 μl.
Sometimes, it can be advantageous to first heat the formulation to 37° C. for 15 min under agitation to optimize dilution of the formulation.
Blood samples were collected over a certain period of time (in general 0.25; 0.5; 1; 1.5; 2; 2.5 h) and plasma analyzed as described below.
Quantification of the Compounds in Plasma:
Plasma concentration of the synthetic oligosaccharide (μg compound/mL plasma) was determined using a bioassay based on the factor Xa inhibitory activity of the compounds in the presence of antithrombin (AT). First, AT was added in excess to the plasma sample, allowing 1/1 oligosaccharide/AT complex formation. Factor Xa was then added in excess, and remaining active factor Xa was determined by spectrophotometry at 405 nm using a chromogenic reagent as a substrate. A dose-response curve was established for each compound to be quantified in rat plasma.
Pharmacokinetic Study after Intravenous Administration: […]

Where two headings read alike, the source gives them in different places.

As a reminder, the bioavailability is the share of a dose that reaches the circulation, judged against a reference dose that is usually intravenous.

In the case of `CCCCOC1C(COS(=O)(=O)[O-])OC(OC2C(OC)C(OC)C(OC3C(COS(=O)(=O)[O-])OC(OC4COC(OC5C(COS(=O)(=O)[O-])OC(OC)C(OS(=O)(=O)[O-])C5O)[C@H](OCC(=O)[O-])C4OC)C(OS(=O)(=O)[O-])C3OS(=O)(=O)[O-])OC2(CC)C(=O)[O-])C(N)C1OCCCC.[Na+].[Na+].[Na+].[Na+].[Na+].[Na+].[Na+].[Na+]` (stereo partly shown) [Sodium salt of 122 without formulation], the bioavailability (active: sodium salt of compound 122, AUC0-2 DIDI vs intravenous) amounted to 2.5 ± 1%. For Fondaparinux Benzathine, the “DIDI (bioavailability F after Direct Intra-Duodenal Infusion)” value (active: Fondaparinux Benzathine, 2 mg/kg, AUC0-2 DIDI vs intravenous) is 2 ± 1%.

On to `CCC1(C(=O)[O-])OC(OC2C(COS(=O)(=O)[O-])OC(OC3COC(OC4C(COS(=O)(=O)[O-])OC(OC)C(OS(=O)(=O)[O-])C4OC)[C@H](OCC(=O)[O-])C3OC)C(OS(=O)(=O)[O-])C2OS(=O)(=O)[O-])C(OC)C(OC)C1OC1OC(COS(=O)(=O)[O-])C(OCCOCCOCCOCCN)C(OC)C1OC.[Na+].[Na+].[Na+].[Na+].[Na+].[Na+].[Na+].[Na+]` (stereo partly shown) [Sodium salt of 147 without formulation], for which, where the note is “active: sodium salt of compound 147, AUC0-2 DIDI vs intravenous”, the bioavailability is 1 ± 10%. Regarding `CO[C@H]1O[C@H](COS(=O)(=O)O)[C@@H](O[C@@H]2O[C@@H](C(=O)O)[C@@H](O[C@H]3O[C@H](COS(=O)(=O)O)[C@@H](O[C@@H]4O[C@H](C(=O)O)[C@@H](O[C@H]5O[C@H](COS(=O)(=O)O)[C@@H](O)[C@H](O)[C@H]5NS(=O)(=O)O)[C@H](O)[C@H]4O)[C@H](OS(=O)(=O)O)[C@H]3NS(=O)(=O)O)[C@H](O)[C@H]2OS(=O)(=O)O)[C@H](O)[C@H]1NS(=O)(=O)O` [Fondaparinux, reference compound], the bioavailability (active: sodium fondaparinux, dose delivered 2 mg/kg, AUC0-2 DIDI vs intravenous) was found to be 3%.

The values above are taken from US9259389B2, “Pharmaceutical oral dosage form containing a synthetic oligosaccharide” (ENDOTIS PHARMA, priority 2009, dated 2016).
